Test results reported in paper PMC3086245 (Emerging Infectious Diseases, 2010).

Test system: M2 of influenza viruses A (H1N1)
Settings: almost all the ORVs

Compound: NC12CC3CC(CC(C3)C1)C2 [amantadine]
- susceptibility by M2 sequencing (in words): sensitive
